Data published in article PMC10704437, “Sterol-activated amyloid beta fibril formation” (The Journal of Biological Chemistry, 2023).
pKd: −log10 of the molar value. Read-outs that look alike come from different tables or passages of the source.

Experiments:
[1] = molecular target: T1, Aβ42 monomer (Homo sapiens, UniProt P05067); test: Sterol binding to Aβ42, equilibrium DHE fluorescence titrations
T1 construct: Small red spheres mark the Aβ42 peptide C-terminal residue, A42; purchased Sigma-Aldrich Corp
T1 sequence (P05067 672-713 limits assumed): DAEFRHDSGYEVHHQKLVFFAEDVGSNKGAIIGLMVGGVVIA
Method: CH ([27]) and CS ([28]) increase the rate of Aβ aggregation and CH is thought to stabilize fibrils ([29]); yet, the affinities of CH and its metabolites for the Aβ peptide monomer have not been determined. Here, CH and CS affinities for the Aβ42 monomer are established using dehydroergosterol (DHE)—a fluorescent CH analog ([30]) used as a competitive probe to determine CH and CS affinities. Aβ42 monomers were prepared as previously described ([31]) (see Methods). […] Under this condition, Aβ42 essentially quantitatively binds DHE until its concentration exceeds that of DHE, which results in a breakpoint in the titration curve that yields the stoichiometry. The arrow seen descending from the breakpoint indicates a stoichiometry of 1:1, which agrees well with the ∼1:1 CH-metabolite:Aβ stoichiometry estimated from analysis of senile plaques micro-dissected from AD-patient brain tissue ([15]).
Figure 1 Sterol binding to Aβ42at equilibrium.A, DHE affinity for monomeric Aβ4_2. […] Binding was detected via the binding-induced 4.4 (±0.2)-fold increase in DHE fluorescence (λex = 325 nm, λem= 375 nm). Fluorescence intensity, I, is plotted relative to the intensity at zero titrant, I0. Titrations were performed independently in triplicate and the line passing through the data is the least-squares fit to a single-binding-site model. B, Aβ42:DHE stoichiometry. […] C. DHE fluorescence (λex = 325 nm, λem = 375 nm) is plotted versus [Aβ42]/[DHE]. The line descending from the titration breakpoint indicates a stoichiometry of 1:1. C and D, CH and CS affinities. Affinities were determined by competitive binding versus DHE. […] C, was titrated with CH (5.0–500 nM, 0.05–5 × Kd) or CS (5.0–500 nM, 0.15–[…] × Kd). Binding was monitored via the decrease in DHE fluorescence (λex = 325, λem = 375) caused by DHE displacement from Aβ42. Controls ensured that <2.0% of Aβ42 oligomerized during the measurement. Titrations were performed in triplicate and averaged. The solid lines through the data represent least-squares fits to a competitive single-binding-site model. C and D, insets highlight the behavior of the titration over ligand concentrations that span their reported CMCs (indicated by arrows). […]
DHE/Aβ42 binding interactions were monitored via the binding-induced 4.4-fold change in DHE fluorescence (λex = 325 nm, λem= 375 nm). […]
The affinities of CH and CS for Aβ42 were determined in competitive binding studies versus DHE. Binding was detected via the fluorescence decrease (λex= 325 nm, λem = 375 nm) caused by DHE displacement. […] Imax = (fraction DHE-bound to peptide at zero competitive ligands)/4.4 — the fold fluorescence change associated with DHE dissociation, see Figure 1A.

[2] = molecular target: T2, Aβ42 (Homo sapiens, UniProt P05067); test: Aβ42 nucleation rate versus [Aβ42]^2 (ThT, early lag phase, linear fit); format: biochemical; conditions: linear least-squares fit of Rate-versus-[Aβ42]^2; free ligand 17 × Kd
T2 construct: Small red spheres mark the Aβ42 peptide C-terminal residue, A42; purchased Sigma-Aldrich Corp
T2 sequence (P05067 672-713 limits assumed): as above
Method: Reaction 1 of the NEF scheme assumes nucleation is second order in Aβ42 monomer concentration. The reaction order was determined for ligand-bound and free forms of Aβ42 by plotting nucleation rates versus [Aβ42]^n, where n, the reaction order, is 1, 2, or 3—such plots become linear only when n equals the reaction order ([54]). Nucleus formation was monitored via ThT fluorescence in the region of the progress curve where nucleation is rate limiting—the very early stage of the lag phase. Rates were obtained by linear least-squares fitting of progress curves. In all cases, fits were initiated at t0 and deviation from linearity was within experimental error (i.e., χ^2 > 0.95). […] The nucleation rate constants are given by the slopes of the plots (obtained by linear least-squares fitting) and are within the error of those predicted by NEF fitting, see Table 2.
Figure 4 Nucleation reaction order. Reactions were monitored via binding-induced changes in ThT fluorescence (λex = 450 nm, λem = 482 nm). All reactions were performed under the following conditions: ThT (30 μM), DMSO (0.5 % v/v), and K2PO4 (50 mM), pH 7.4, 25 °C ± 2 deg. C. […] A, unliganded Aβ42 nucleation. Titrant concentrations: Aβ42 (1.0, 2.0, 3.0, or 4.0 μM). B, CH•Aβ42 nucleation. […]
The formation of fibril nuclei was monitored via the Aβ-binding induced change in ThT fluorescence (λex = 450 nm, λem = 482 nm, ([42])). […]

| pKd ([1]; determined in DHE competition studies, DHE 10 nM, Aβ42 20 nM, K2PO4 50 mM, pH 7.4, 25 °C, read-out: Kd) | SMILES | pKd [1] | enhanced affinity of CS over CH for Aβ42 ([1]; ratio of Kd values) | Nucleation rate constant, linear model [2] |
| --- | --- | --- | --- | --- |
| – | CC(C)CCC[C@@H](C)[C@H]1CC[C@H]2[C@@H]3CC=C4C[C@@H](OS(=O)(=O)O)CC[C@]4(C)[C@H]3CC[C@]12C [CS, cholesterol 3-sulfate] | 7.44 | 3.4 fold | 1.5 (0.1) × 10^−11 nM^−1 s^−1 |
| 6.92 | CC(C)CCC[C@@H](C)[C@H]1CC[C@H]2[C@@H]3CC=C4C[C@@H](O)CC[C@]4(C)[C@H]3CC[C@]12C [CH, cholesterol] | – | – | 7.3 (0.1) × 10^−14 nM^−1 s^−1 |
